Earlier results on four compounds are cited in patent US20090306209A1, “ENTERIC-COATED FORMULATIONS OF POLYETHYLENE GLYCOL AND ONE OR MORE SOLUBLE AMINO ACIDS FOR ORAL INGESTION AND ENHANCED UPTAKE OF SAME” (priority 2008, published 2009).

The conditions of the data set: for solubility in water (in words): temperature not stated.

Where two headings read alike, the source gives them in different places.

As for `Cl.NC(=O)CC[C@H](N)C(=O)O` [L-glutamine-HCl], the “solubility in water (in words)” value is reported as “very soluble in water”.
On to `NC(=O)CC[C@H](N)C(=O)O` [L-glutamine], for which, under “water at 30° C.”, the solubility in water is recorded as 5 grams/100 ml.
Take `CC(C)C[C@H](N)C(=O)O.Cl` [L-leucine.HCl]: the “solubility in water (in words)” value is reported as “very soluble in water”.
Take `CC(C)C[C@H](N)C(=O)O` [L-leucine]: the solubility in water (water at 25° C.) is 2.4 g/100 ml.
